In PubChem BioAssay (NCI):
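Five concentrations, 48 hours, 96-well plates. GI50 marks 50% less growth. TGI: total growth inhibition.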

Assays:
Assay in all cases: NCI tumour cell line growth inhibition, 48 h
[1] = tested on: A498 renal
[2] = tested on: SN12C renal
[3] = tested on: LOX IMVI melanoma
[4] = tested on: M14 melanoma
[5] = tested on: NCI-H23 lung
[6] = tested on: IGROV1 ovarian
[7] = tested on: HCT-116 colon
[8] = tested on: 786-0 renal
[9] = tested on: MOLT-4 leukemia
[10] = tested on: CAKI-1 renal
[11] = tested on: MALME-3M melanoma
[12] = tested on: UO-31 renal
[13] = tested on: OVCAR-4 ovarian
[14] = tested on: NCI/ADR-RES ovarian
[15] = tested on: SF-539 CNS
[16] = tested on: A549 NSCLC
[17] = tested on: COLO 205 colon
[18] = tested on: UACC-62 melanoma
[19] = tested on: NCI-H460 lung
[20] = tested on: MCF7 breast
[21] = tested on: EKVX NSCLC
[22] = tested on: HOP-62 NSCLC
[23] = tested on: HT29 colon
[24] = tested on: SW-620 colon
[25] = tested on: KM12 colon
[26] = tested on: NCI-H522 lung
[27] = tested on: SF-268 CNS
[28] = tested on: HS 578T breast
[29] = tested on: NCI-H226 lung
[30] = tested on: K-562 leukemia
[31] = tested on: MDA-MB-435
[32] = tested on: CCRF-CEM leukemia
[33] = tested on: ACHN renal
[34] = tested on: HCT-15 colon
[35] = tested on: SK-MEL-2 melanoma
[36] = tested on: SR leukemia
[37] = tested on: PC-3 prostate
[38] = tested on: SK-MEL-28 melanoma
[39] = tested on: MDA-MB-231 breast
[40] = tested on: RPMI-8226 leukemia
[41] = tested on: UACC-257 melanoma
[42] = tested on: RXF 393 renal
[43] = tested on: HCC-2998 colon
[44] = tested on: SNB-75 CNS
[45] = tested on: BT-549 breast
[46] = tested on: OVCAR-3 ovarian
[47] = tested on: SNB-19 CNS
[48] = tested on: TK-10 renal
[49] = tested on: T-47D breast
[50] = tested on: OVCAR-8 ovarian
[51] = tested on: HL-60(TB) leukemia
[52] = tested on: DU-145 prostate
[53] = tested on: SK-MEL-5 melanoma
[54] = tested on: OVCAR-5 ovarian
[55] = tested on: SF-295 CNS
[56] = tested on: U251 CNS
[57] = tested on: SK-OV-3 ovarian

Compound: Nc1c(C(=O)Nc2ccccc2)sc2nc3c(cc12)C(=O)CCC3
- GI50 [1]: 282 nM
- GI50 [2]: 6200 nM
- TGI [2]: > 100000 nM
- TGI [3]: > 100000 nM
- GI50 [4]: 401 nM
- TGI [4]: > 32900 nM
- GI50 [5]: 833 nM
- TGI [5]: > 100000 nM
- GI50 [6]: 1010 nM
- TGI [6]: > 100000 nM
- GI50 [7]: 512 nM
- TGI [7]: > 100000 nM
- GI50 [8]: 1270 nM
- TGI [8]: > 100000 nM
- TGI [9]: > 100000 nM
- GI50 [10]: 485 nM
- TGI [10]: > 100000 nM
- GI50 [11]: 4660 nM
- TGI [11]: > 100000 nM
- GI50 [12]: > 27300 nM
- TGI [12]: > 100000 nM
- GI50 [13]: 810 nM
- TGI [13]: > 100000 nM
- GI50 [14]: 399 nM
- TGI [14]: 10600 nM
- GI50 [15]: 384 nM
- TGI [15]: > 26100 nM
- GI50 [16]: 436 nM
- TGI [16]: > 100000 nM
- GI50 [17]: 364 nM
- TGI [17]: 2990 nM
- GI50 [18]: 557 nM
- TGI [18]: > 100000 nM
- GI50 [19]: 346 nM
- GI50 [20]: 366 nM
- TGI [20]: > 100000 nM
- GI50 [21]: 627 nM
- TGI [21]: > 100000 nM
- GI50 [22]: 745 nM
- TGI [22]: > 100000 nM
- GI50 [23]: 354 nM
- GI50 [24]: 333 nM
- TGI [24]: > 100000 nM
- GI50 [25]: 323 nM
- TGI [25]: > 100000 nM
- GI50 [26]: 215 nM
- TGI [26]: 1290 nM
- GI50 [27]: 1020 nM
- TGI [27]: > 100000 nM
- GI50 [28]: 524 nM
- TGI [28]: > 72400 nM
- GI50 [29]: 3910 nM
- TGI [29]: > 100000 nM
- GI50 [30]: 287 nM
- TGI [30]: > 100000 nM
- GI50 [31]: 139 nM
- TGI [31]: > 100000 nM
- GI50 [32]: 374 nM
- TGI [32]: > 100000 nM
- GI50 [33]: 948 nM
- TGI [33]: > 100000 nM
- GI50 [34]: 407 nM
- TGI [34]: > 100000 nM
- GI50 [35]: 350 nM
- GI50 [36]: 533 nM
- TGI [36]: > 100000 nM
- GI50 [37]: 389 nM
- TGI [37]: > 100000 nM
- GI50 [38]: 710 nM
- TGI [38]: > 100000 nM
- GI50 [39]: 2320 nM
- TGI [39]: > 100000 nM
- GI50 [40]: 303 nM
- TGI [40]: > 100000 nM
- GI50 [41]: 570 nM
- TGI [41]: > 100000 nM
- GI50 [42]: 190 nM
- TGI [42]: 619 nM
- GI50 [43]: 1200 nM
- TGI [43]: > 100000 nM
- GI50 [44]: 494 nM
- TGI [44]: > 88700 nM
- GI50 [45]: 3170 nM
- TGI [45]: > 100000 nM
- GI50 [46]: 264 nM
- TGI [46]: 1220 nM
- GI50 [47]: 730 nM
- TGI [47]: > 100000 nM
- GI50 [48]: 807 nM
- TGI [48]: > 100000 nM
- GI50 [49]: 1460 nM
- TGI [49]: > 100000 nM
- GI50 [50]: 2460 nM
- TGI [50]: > 100000 nM
- GI50 [51]: 587 nM
- TGI [51]: > 100000 nM
- GI50 [52]: 328 nM
- TGI [52]: 19900 nM
- GI50 [53]: 249 nM
- TGI [53]: 5700 nM
- GI50 [54]: 1280 nM
- TGI [54]: > 100000 nM
- GI50 [55]: 435 nM
- TGI [55]: > 100000 nM
- GI50 [56]: 486 nM
- TGI [56]: > 41900 nM
- GI50 [57]: 412 nM
- TGI [57]: > 100000 nM
